From patent publication US20150011566A1, “N-PHENYLPIPERAZINE DERIVATIVES THAT ARE ANTAGONISTS OF A1A, A1D ADRENOCEPTORS AND 5-HT1A RECEPTORS FOR THE TREATMENT OF BENIGN PROSTATE HYPERPLASIA, PHARMACEUTICAL COMPOSITIONS CONTAINING THE SAME” (UNIVERSIDADE FEDERAL DO RIO DE JANEIRO-UFRJ, priority 2012, published 2015)
Read-outs that look alike come from different tables or passages of the source.

Legend:
α1D adrenoceptors = target: T1, α1D adrenoceptors (Rattus norvegicus, UniProt P23944); assay: Phenylephrine-induced contraction inhibition in rat aorta (isometric contraction, Schild KB); type: cell-based; set-up: CR: concentration ratio CR = EC′50/EC50 (with/without antagonist); conditions: for log KB ± EPM (M) / Kb: Schild equation; for CR ± EPM: ratio of EC50 in presence and absence of test substance
T1 construct: the rat thoracic aorta corresponds to a tissue expressing mainly α1D-adrenoceptors; from tissue; host or cells: rat thoracic aorta rings
T1 sequence (P23944 1-561): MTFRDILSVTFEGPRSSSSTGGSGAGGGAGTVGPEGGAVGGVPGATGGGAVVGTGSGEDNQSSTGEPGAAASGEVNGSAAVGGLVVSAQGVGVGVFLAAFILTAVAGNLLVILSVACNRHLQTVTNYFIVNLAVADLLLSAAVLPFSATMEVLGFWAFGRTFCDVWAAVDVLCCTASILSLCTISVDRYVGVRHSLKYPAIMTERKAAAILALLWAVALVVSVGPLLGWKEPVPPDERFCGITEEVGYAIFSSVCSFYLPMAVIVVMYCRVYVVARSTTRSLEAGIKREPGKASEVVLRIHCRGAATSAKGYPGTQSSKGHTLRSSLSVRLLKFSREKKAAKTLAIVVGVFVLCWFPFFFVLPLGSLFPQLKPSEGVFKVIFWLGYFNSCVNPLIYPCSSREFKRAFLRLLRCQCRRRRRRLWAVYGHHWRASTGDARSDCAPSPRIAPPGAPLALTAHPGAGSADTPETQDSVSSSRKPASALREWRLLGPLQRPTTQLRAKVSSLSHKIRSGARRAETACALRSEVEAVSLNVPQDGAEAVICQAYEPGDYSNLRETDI
Procedure: Isometric contraction assays were performed using Male Wistar rats, aged 2.5-3 months euthanized as described above. The thoracic aorta (tissue enriched in functional α1D adrenergic receptors) was removed, free from adjacent connective and adipose tissues cut in 3 mm segments. […] The aort segments were then subjected to a preload of 20 mN per 60 minutes. After recovery of tissues maintained for 1 hour at rest, it was performed a contraction induced by phenylephrine (PE) 1 μM (α1 adrenergic receptors selective agonist). In this plateau contraction, in order to promote endothelium-dependent relaxation resulting from the activation of the enzyme endothelial nitric oxide synthase (eNOS) and subsequent release of nitric oxide (NO), acetylcholine 1 μM was added. Rings that relaxed at least 80% were considered to have intact endothelium, were used.
Then the preparation was washed and allowed to stand for 1 hour in order to recover the tissue. Then it was performed cumulative curves to phenylephrine (10^−9 to 10^−5 M) in the presence of propranolol 1 μM (β-adrenoceptor blocker receptors) before and after incubation for 1 hour of the LDT's at 10 or 50 nM. In parallel, a temporal control was performed to rule out any artifacts on the measured contraction, where was added only the vehicle (ultrapure water Milli Q®) instead of the substance to be tested. Strictly following the same protocol as the other tanks wherein it was added the LDT's.
The data were scanned in MacLab 8S system connected to the isometric tension transducer Grass FT-03, which recorded the voltage variation in milinewtons (mN) generated throughout the analysis. The digitized data were then analyzed by Chart 3.4/s software program (MacLab, Inc., USA). In the pharmacological screening process, the initial concentration of the used LDT's was 50 nM, which is considered as cut concentration, i.e., substances that have no effect at this concentration would not investigated in this test. […] The ratio of the EC50 value in these two conditions (with and without LDT) matches the third parameter, called “concentration ratio” (or RC).
log(CR−1)=log [B]−log KB (Equation 1)
Where CR=concentration ratio (EC′50/EC50); [B]=‘B’ antagonist concentration; KB=equilibrium dissociation constant of the antagonist ‘B’.
With this in view, the functional tests of contraction in isolated organ model were performed using these tissues. […] Similarly, targeting to rule out any artifacts on the measured contraction, a time control was performed where only the vehicle was added (ultrapure Mili Q® water) in place of the substance to be tested, strictly following the same protocol as the other vats were added to the LDT's (FIG. 1).

muscarinic receptors = type: binding, rat; conditions: Table 14; for Ki: Cheng-Prusoff
[1] = Table 2, 50 nM (62-69) or 10 nM (70, 39)
[2] = Table 2, 50 nM (62-69) or 10 nM (70, 39), read-out: KB
[3] = Table 2, phenylephrine curve in presence of LTD 50 nM (62-69)
[4] = Table 2, phenylephrine curve in presence of LTD 10 nM (70 and 39)
[5] = KB (nM), Table 1, test substance at 50 nM (a), 10 nM (b) or 2 nM (c)
[6] = log KB ± EPM (M), Table 1, test substance at 50 nM (a), 10 nM (b) or 2 nM (c)

In the case of `CCN1CCN(c2ccccc2OC)CC1` [LDT 62], the CR (α1D adrenoceptors; Table 2, LTD 50 nM (62-69)) is reported as 7, the “log KB ± EPM (M)” value (α1D adrenoceptors; [1]) is reported as −8.08 ± 0.02 M and the Kb (α1D adrenoceptors; [2]) is reported as 8.3 nM. For the same compound, the “log CE50 ± EPM (M) LDT” value (α1D adrenoceptors; [3]) was −6.01 ± 0.06 M.

For `CCN1CCN(c2ccccc2O)CC1` [LDT 70], the CR (α1D adrenoceptors; Table 2, LTD 10 nM (70 and 39)) was 123.6, the “log KB ± EPM (M)” value (α1D adrenoceptors; [1]) was −7.07 ± 0.08a M and the Kb (α1D adrenoceptors; [2]) was 85.1 nM. The “log CE50 ± EPM (M) LDT” value (α1D adrenoceptors; [4]) was −4.86 ± 0.09 M.

With `CCCCCCCCN1CCN(c2ccccc2OC)CC1` [LDT 68] the “-log 1050 (M)” value (muscarinic receptors) was 4.5 ± 0.05 M, the Ki (muscarinic receptors) was 10800 nM and the CR (α1D adrenoceptors; Table 2, LTD 50 nM (62-69)) was 12.8. The “log KB ± EPM (M)” value (α1D adrenoceptors; [1]) was −8.36 ± 0.05 M, the Kb (α1D adrenoceptors; [2]) was 4.36 nM and the “log CE50 ± EPM (M) LDT” value (α1D adrenoceptors; [3]) was −5.81 ± 0.06 M.

`CCCCN1CCN(c2ccccc2OC)CC1` [LDT 64] was tested, and the CR (α1D adrenoceptors; Table 2, LTD 50 nM (62-69)) was 6.4, the “log KB ± EPM (M)” value (α1D adrenoceptors; [1]) was −7.93 ± 0.13 M and the Kb (α1D adrenoceptors; [2]) was 11.7 nM. For the same compound, the “log CE50 ± EPM (M) LDT” value (α1D adrenoceptors; [3]) was −6.18 ± 0.08 M.

`CCN1CCN(c2ccccc2)CC1` [LDT 39] was tested, and the CR (α1D adrenoceptors; Table 2, LTD 10 nM (70 and 39)) was 76.7, the “log KB ± EPM (M)” value (α1D adrenoceptors; [1]) was −6.85 ± 0.08a M and the Kb (α1D adrenoceptors; [2]) was 141 nM. The “log CE50 ± EPM (M) LDT” value (α1D adrenoceptors; [4]) was −4.91 ± 0.05 M.

For `CCCCCCCN1CCN(c2ccccc2OC)CC1` [LDT 67], the “-log 1050 (M)” value (muscarinic receptors) was 4.2 ± 0.02 M, the Ki (muscarinic receptors) was 21000 nM and the CR (α1D adrenoceptors; Table 2, LTD 50 nM (62-69)) was 29.5. For the same compound, the “log KB ± EPM (M)” value (α1D adrenoceptors; [1]) was −8.74 ± 0.08a M, the Kb (α1D adrenoceptors; [2]) was 1.82 nM and the “log CE50 ± EPM (M) LDT” value (α1D adrenoceptors; [3]) was −5.46 ± 0.08 M.

`CCCCCN1CCN(c2ccccc2OC)CC1` [LDT 65] was tested, and the “-log 1050 (M)” value (muscarinic receptors) was 3.3 ± 0.08 M, the Ki (muscarinic receptors) was 172000 nM and the Kb (α1D adrenoceptors; KB (nM), Table 2, 50 nM (62-69) or 10 nM (70, 39)) was 8.3 nM. The CR (α1D adrenoceptors; Table 2, LTD 50 nM (62-69)) was 7.0 and the “log CE50 ± EPM (M) LDT” value (α1D adrenoceptors; [3]) was −5.89 ± 0.05 M.

In the case of `CCOc1ccccc1N1CCN(CCc2ccc3c(c2)OCO3)CC1` [LDT 8], the “-log 1050 (M)” value (muscarinic receptors) is reported as 4.48 ± 0.07 M, the Ki (muscarinic receptors) is reported as 33900 nM and the Kb (α1D adrenoceptors; [5]) is reported as 0.16 nM. For the same compound, the Kb (α1D adrenoceptors; [6]) was 0.166 nM and the “CR ± EPM” value (α1D adrenoceptors; 10 nM) was 62.5 ± 15.5.

For `COc1ccc(CCN2CCN(c3ccccc3OC)CC2)cc1` [LDT 4], the Kb (α1D adrenoceptors; [5]) was 3.14 nM, the Kb (α1D adrenoceptors; [6]) was 3.39 nM and the “CR ± EPM” value (α1D adrenoceptors; 50 nM) was 16.9 ± 5.5.

With `COc1ccccc1N1CCN(CCc2ccccc2)CC1` [LDT 2] the Kb (α1D adrenoceptors; [5]) was 2.15 nM, the Kb (α1D adrenoceptors; [6]) was 3.09 nM and the “CR ± EPM” value (α1D adrenoceptors; 50 nM) was 24.3 ± 8.7.

`CCOc1ccccc1N1CCN(CC)CC1` [LDT 69] was tested, and the CR (α1D adrenoceptors; Table 2, LTD 50 nM (62-69)) was 6.9, the “log KB ± EPM (M)” value (α1D adrenoceptors; [1]) was −8.06 ± 0.08 M and the Kb (α1D adrenoceptors; [2]) was 8.71 nM. The “log CE50 ± EPM (M) LDT” value (α1D adrenoceptors; [3]) was −5.87 ± 0.07 M.

With `CCCCCCN1CCN(c2ccccc2OC)CC1` [LDT 66] the “-log 1050 (M)” value (muscarinic receptors) was 3.8 ± 0.08 M, the Ki (muscarinic receptors) was 54200 nM and the CR (α1D adrenoceptors; Table 2, LTD 50 nM (62-69)) was 32. The “log KB ± EPM (M)” value (α1D adrenoceptors; [1]) was −8.78 ± 0.06a M, the Kb (α1D adrenoceptors; [2]) was 1.66 nM and the “log CE50 ± EPM (M) LDT” value (α1D adrenoceptors; [3]) was −5.29 ± 0.07 M.

For `CCCN1CCN(c2ccccc2OC)CC1` [LDT 63], the CR (α1D adrenoceptors; Table 2, LTD 50 nM (62-69)) was 3.1, the “log KB ± EPM (M)” value (α1D adrenoceptors; [1]) was −7.59 ± 0.12b M and the Kb (α1D adrenoceptors; [2]) was 31.5 nM. For the same compound, the “log CE50 ± EPM (M) LDT” value (α1D adrenoceptors; [3]) was −6.80 ± 0.18 M.

For `COc1ccc(CCN2CCN(c3ccccc3OC)CC2)cc1OC` [LDT 5], the “-log 1050 (M)” value (muscarinic receptors) was 3.97 ± 0.06 M, the Ki (muscarinic receptors) was 108000 nM and the Kb (α1D adrenoceptors; [5]) was 0.57 nM. For the same compound, the Kb (α1D adrenoceptors; [6]) was 0.589 nM and the “CR ± EPM” value (α1D adrenoceptors; 10 nM) was 18.5 ± 2.5.

In the case of `COc1cccc(CCN2CCN(c3ccccc3OC)CC2)c1` [LDT 3], the “-log 1050 (M)” value (muscarinic receptors) is reported as 4.26 ± 0.07 M, the Ki (muscarinic receptors) is reported as 56700 nM and the Kb (α1D adrenoceptors; [5]) is reported as 1.78 nM. The “CR ± EPM” value (α1D adrenoceptors; 50 nM) was 29.1 ± 1.8.

`CCOc1ccccc1N1CCN(CCc2ccc(OC)c(OC)c2)CC1` [LDT 245] gave a Kb (α1D adrenoceptors; [5]) of 1.16 nM and a Kb (α1D adrenoceptors; [6]) of 1.17 nM.
